Like-named read-outs stand apart in the source and are kept apart here.
Assays:
KDR = target: T1, KDR (Homo sapiens, UniProt P35968); assay: Inhibitory activity against KDR (VEGF-R2), in vitro data of Examples 170 and 207; type: biochemical; details: read-out: KDR inhibition at 10 μM
T1 construct: expressed in transfected cells; host or cells: CHO cells
Outline: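 KDR tyrosine phosphorylation detected by luminescence after overnight 4° C capture of 20 μg lysate protein with PY20:AP antibody. Lysates came from cells given compound for 2 h at 37° C, then final 20 ng/ml VEGF for 5 min; compound-free medium as control.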

FGFR3 (K650E) = target: T2, FGFR3 (K650E) (Homo sapiens, UniProt P22607, K650E); assay: Recombinant GST-FGFR-3-K650E tyrosine kinase assay (33P into poly(Glu,Tyr)); type: biochemical
T2 construct: amino acids 411-806 of the cytoplasmic domain of human FGFR-3, N-terminally fused to GST; made in house; host or cells: Sf9 insect cells (baculovirus)

c-Abl = c-Abl (Homo sapiens, UniProt P00519); assay: Inhibitory activity against c-Abl (Example 207); type: biochemical; details: Examples 171 to 206
wild type Bcr-abl = target: T3, wild type Bcr-abl (Homo sapiens, UniProt P00519); assay: Antiproliferative effect on cells expressing wild type Bcr-abl; type: cell-based; details: cell proliferation
T3 construct: the major C-terminal part (exons 2-11) of the c-abl gene; expressed in transfected cells; host or cells: murine 32D (32D-p210) or Ba/F3 cells; the other entry of the earlier key: BCR (P11274, Breakpoint cluster region protein)
Procedure: 32D-p210 cells are plated into 96 well TC plates at a density of 15,000 cells per well. 50 μL of two fold serial dilutions of the test compound (Cmax is 40 μM) are added to each well (STI571 is included as a positive control). After incubating the cells for 48 hours at 37° C., 5% CO2, 15 μL of MTT (Promega) is added to each well and the cells are incubated for an additional 5 hours. The optical density at 570 nm is quantified spectrophotometrically and IC50 values, the concentration of compound required for 50% inhibition, determined from a dose response curve.
Compounds of the invention are tested for their antiproliferative effect on Ba/F3 cells expressing either wild type or the mutant forms of BCR-Abl (G250E, E255V, T315I, F317L, M351T) that confers resistance or diminished sensitivity to STI571. The antiproliferative effect of these compounds on the mutant-BCR-Abl expressing cells and on the non transformed cells were tested at 10, 3.3, 1.1 and 0.37 μM as described above (in media lacking IL3). The IC50 values of the compounds lacking toxicity on the untransformed cells were determined from the dose response curves obtained as describe above.

PDGFRβ = PDGFRβ (Homo sapiens, UniProt P09619); assay: Inhibition of PDGFRβ; type: biochemical
Procedure: Compounds selectively inhibiting the proliferation of these BCR-Abl transformed cells are tested for anti-proliferative activity on Ba/F3 cells expressing either wild type or the mutant forms of Bcr-abl. In addition, compounds are assayed to measure their capacity to inhibit FGFR35 (in an enzyme and cellular assay), FLT3, PDGFRβ, trkB, c-SRC, BMX, SGK, Tie2, Lck, JNK2α2, MKK4, c-RAF, MKK6, SAPK2α and SAPK2β kinases.

FGFR35 [1] = target: T4, FGFR35 (Homo sapiens, UniProt P22607); assay: FGFR35 (enzymatic assay), HTRF; type: biochemical; set-up: purchased Upstate; details: purified FGFR35, 3 μM ATP; read-out: IC50 for the FGFR35 enzyme assay
Procedure: Kinase activity assay with purified FGFR35 (Upstate) is carried out in a final volume of 10 μL containing 0.25 μg/mL of enzyme in kinase buffer (30 mM Tris-HCl pH7.5, 15 mM MgCl2, 4.5 mM MnCl2, 15 μM Na3VO4 and 50 μg/mL BSA), and substrates (5 μg/mL biotin-poly-EY(Glu, Tyr) (CIS-US, Inc.) and 3 μM ATP). Two solutions are made: the first solution of 5 μl contains the FGFR35 enzyme in kinase buffer was first dispensed into 384—format ProxiPlate® (Perkin-Elmer) followed by adding 50 nL of compounds dissolved in DMSO, then 5 μl of second solution contains the substrate (poly-EY) and ATP in kinase buffer was added to each wells. The reactions are incubated at room temperature for one hour, stopped by adding 10 μL of HTRF detection mixture, which contains 30 mM Tris-HCl pH7.5, 0.5 M KF, 50 mM ETDA, 0.2 mg/mL BSA, 15 μg/mL streptavidin-XL665 (CIS-US, Inc.) and 150 ng/mL cryptate conjugated anti-phosphotyrosine antibody (CIS-US, Inc.). After one hour of room temperature incubation to allow for streptavidin-biotin interaction, time resolved florescent signals are read on Analyst GT (Molecular Devices Corp.). IC50 values are calculated by linear regression analysis of the percentage inhibition of each compound at 12 concentrations (1:3 dilution from 50 μM to 0.28 nM).

FGFR35 [2] = target: T4, FGFR35; assay: FGFR35 (cellular assay), proliferation of Ba/F3-TEL-FGFR35 cells; type: cell-based; set-up: fused on or other part: N-terminal part of TEL (ETV6), which acts as the oligomerising partner; it is fused to the part of FGFR3 that carries the kinase; P41212 (Transcription factor ETV6); details: 48 hours, read-out: IC50 for the FGFR35 cellular assay
Procedure: Compounds of the invention are tested for their ability to inhibit transformed Ba/F3-TEL-FGFR35 cells proliferation, which is depended on FGFR35 cellular kinase activity. Ba/F3-TEL-FGFR35 are cultured up to 800,000 cells/mL in suspension, with RPMI 1640 supplemented with 10% fetal bovine serum as the culture medium. Cells are dispensed into 384-well format plate at 5000 cell/well in 50 μL culture medium. Compounds of the invention are dissolved and diluted in dimethylsulfoxide (DMSO). Twelve points 1:3 serial dilutions are made into DMSO to create concentrations gradient ranging typically from 10 mM to 0.05 μM. Cells are added with 50 nL of diluted compounds and incubated for 48 hours in cell culture incubator. AlamarBlue® (TREK Diagnostic Systems), which can be used to monitor the reducing environment created by proliferating cells, are added to cells at final concentration of 10%. After additional four hours of incubation in a 37° C. cell culture incubator, fluorescence signals from reduced AlamarBlue® (Excitation at 530 nm, Emission at 580 nm) are quantified on Analyst GT (Molecular Devices Corp.). IC50 values are calculated by linear regression analysis of the percentage inhibition of each compound at 12 concentrations.
Target sequence in this assay (P22607 472-761 limits assumed, stated change not applied): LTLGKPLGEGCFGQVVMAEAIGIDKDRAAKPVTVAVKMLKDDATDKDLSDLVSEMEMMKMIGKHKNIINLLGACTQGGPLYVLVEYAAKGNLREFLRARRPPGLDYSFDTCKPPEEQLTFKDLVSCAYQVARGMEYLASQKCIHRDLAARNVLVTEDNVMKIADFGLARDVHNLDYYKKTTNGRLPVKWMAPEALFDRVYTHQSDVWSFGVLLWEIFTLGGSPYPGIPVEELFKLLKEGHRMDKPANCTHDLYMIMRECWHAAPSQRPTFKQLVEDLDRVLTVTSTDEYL

Tek = target: T5, Tek (Homo sapiens, UniProt Q02763); assay: Recombinant GST-Tek (Tie-2) tyrosine kinase assay (33P into poly(Glu,Tyr)); type: biochemical; details: Examples 1 to 169
T5 construct: amino acids 773-1124 of the cytoplasmic kinase domain of human Tek, N-terminally fused to GST; made in house; host or cells: Sf9 insect cells (baculovirus)
Outline: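 Read-out is filter-bound 33P in poly(Glu,Tyr) 4:1 (10 μg/mL) after 30 min at ambient temperature with 4.0 μM ATP. Enzyme: 150 ng human GST-Tek (aa 773-1124) from insect cells, in Tris pH 7.5 with Mn2+/Mg2+ and vanadate. IC50 fitted linearly over four concentrations, usually 0.01-10 μM.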

[3] = 10 μM, Examples 171 to 206, read-out: FGFR3 inhibition at 10 μM
[4] = 10 μM, Examples 1 to 169, read-out: FGFR3 (K650E) inhibition at 10 μM

T2 sequence (P22607 411-806 K650E): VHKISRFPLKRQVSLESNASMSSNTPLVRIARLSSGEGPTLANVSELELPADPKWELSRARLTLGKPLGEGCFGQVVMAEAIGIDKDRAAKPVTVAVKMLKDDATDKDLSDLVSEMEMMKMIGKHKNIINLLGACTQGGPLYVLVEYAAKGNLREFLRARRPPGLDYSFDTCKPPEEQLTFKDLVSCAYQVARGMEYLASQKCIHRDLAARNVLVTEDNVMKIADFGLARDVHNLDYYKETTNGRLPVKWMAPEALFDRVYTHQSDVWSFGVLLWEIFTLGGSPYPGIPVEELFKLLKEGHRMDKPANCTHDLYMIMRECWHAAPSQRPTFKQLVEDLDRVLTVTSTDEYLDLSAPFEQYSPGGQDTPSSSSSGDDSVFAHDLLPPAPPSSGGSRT
T5 sequence (Q02763 773-1124): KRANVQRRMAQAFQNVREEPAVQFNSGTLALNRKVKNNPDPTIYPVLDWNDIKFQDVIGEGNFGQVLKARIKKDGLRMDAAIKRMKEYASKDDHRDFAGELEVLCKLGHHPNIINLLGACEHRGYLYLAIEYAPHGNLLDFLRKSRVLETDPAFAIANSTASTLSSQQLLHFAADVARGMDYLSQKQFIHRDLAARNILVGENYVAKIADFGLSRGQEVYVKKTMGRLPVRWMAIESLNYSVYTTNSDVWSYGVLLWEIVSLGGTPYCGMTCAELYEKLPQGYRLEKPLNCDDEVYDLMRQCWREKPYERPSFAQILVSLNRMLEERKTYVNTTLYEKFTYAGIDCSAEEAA
T1 sequence (P35968 20-1356): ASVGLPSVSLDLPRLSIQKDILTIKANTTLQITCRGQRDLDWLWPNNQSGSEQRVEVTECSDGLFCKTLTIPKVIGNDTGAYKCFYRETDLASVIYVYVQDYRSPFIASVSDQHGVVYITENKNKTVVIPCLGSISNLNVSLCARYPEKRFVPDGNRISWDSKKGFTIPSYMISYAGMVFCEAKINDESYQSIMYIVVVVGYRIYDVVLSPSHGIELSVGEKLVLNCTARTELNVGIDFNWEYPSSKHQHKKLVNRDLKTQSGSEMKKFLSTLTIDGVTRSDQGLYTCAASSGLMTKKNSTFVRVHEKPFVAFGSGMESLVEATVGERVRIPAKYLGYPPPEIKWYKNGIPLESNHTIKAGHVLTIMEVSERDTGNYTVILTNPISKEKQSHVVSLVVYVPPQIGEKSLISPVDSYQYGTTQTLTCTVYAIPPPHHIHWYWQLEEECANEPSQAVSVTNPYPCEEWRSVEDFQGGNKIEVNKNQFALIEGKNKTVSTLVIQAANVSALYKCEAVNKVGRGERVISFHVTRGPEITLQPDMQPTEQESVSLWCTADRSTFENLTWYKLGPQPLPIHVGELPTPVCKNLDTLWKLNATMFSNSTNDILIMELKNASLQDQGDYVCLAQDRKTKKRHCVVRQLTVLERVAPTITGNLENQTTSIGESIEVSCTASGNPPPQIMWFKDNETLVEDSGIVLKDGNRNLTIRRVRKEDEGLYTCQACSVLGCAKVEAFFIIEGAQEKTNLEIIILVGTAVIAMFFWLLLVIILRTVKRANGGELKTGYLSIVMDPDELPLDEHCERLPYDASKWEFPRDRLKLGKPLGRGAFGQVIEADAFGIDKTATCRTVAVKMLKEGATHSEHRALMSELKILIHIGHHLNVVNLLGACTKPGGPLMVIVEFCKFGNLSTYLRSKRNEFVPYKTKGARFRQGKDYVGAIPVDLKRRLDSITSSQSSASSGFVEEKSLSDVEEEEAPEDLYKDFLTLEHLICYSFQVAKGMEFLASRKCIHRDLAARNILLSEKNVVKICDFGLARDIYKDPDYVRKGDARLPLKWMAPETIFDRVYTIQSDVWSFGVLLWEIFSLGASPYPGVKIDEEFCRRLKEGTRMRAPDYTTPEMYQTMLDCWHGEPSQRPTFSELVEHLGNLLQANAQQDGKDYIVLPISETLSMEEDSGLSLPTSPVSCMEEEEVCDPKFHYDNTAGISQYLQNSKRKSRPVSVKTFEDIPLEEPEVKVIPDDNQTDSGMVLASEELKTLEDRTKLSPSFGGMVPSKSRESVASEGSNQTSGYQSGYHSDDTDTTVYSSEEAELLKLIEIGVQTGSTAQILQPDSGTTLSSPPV
c-Abl, sequence (P00519 whole entry): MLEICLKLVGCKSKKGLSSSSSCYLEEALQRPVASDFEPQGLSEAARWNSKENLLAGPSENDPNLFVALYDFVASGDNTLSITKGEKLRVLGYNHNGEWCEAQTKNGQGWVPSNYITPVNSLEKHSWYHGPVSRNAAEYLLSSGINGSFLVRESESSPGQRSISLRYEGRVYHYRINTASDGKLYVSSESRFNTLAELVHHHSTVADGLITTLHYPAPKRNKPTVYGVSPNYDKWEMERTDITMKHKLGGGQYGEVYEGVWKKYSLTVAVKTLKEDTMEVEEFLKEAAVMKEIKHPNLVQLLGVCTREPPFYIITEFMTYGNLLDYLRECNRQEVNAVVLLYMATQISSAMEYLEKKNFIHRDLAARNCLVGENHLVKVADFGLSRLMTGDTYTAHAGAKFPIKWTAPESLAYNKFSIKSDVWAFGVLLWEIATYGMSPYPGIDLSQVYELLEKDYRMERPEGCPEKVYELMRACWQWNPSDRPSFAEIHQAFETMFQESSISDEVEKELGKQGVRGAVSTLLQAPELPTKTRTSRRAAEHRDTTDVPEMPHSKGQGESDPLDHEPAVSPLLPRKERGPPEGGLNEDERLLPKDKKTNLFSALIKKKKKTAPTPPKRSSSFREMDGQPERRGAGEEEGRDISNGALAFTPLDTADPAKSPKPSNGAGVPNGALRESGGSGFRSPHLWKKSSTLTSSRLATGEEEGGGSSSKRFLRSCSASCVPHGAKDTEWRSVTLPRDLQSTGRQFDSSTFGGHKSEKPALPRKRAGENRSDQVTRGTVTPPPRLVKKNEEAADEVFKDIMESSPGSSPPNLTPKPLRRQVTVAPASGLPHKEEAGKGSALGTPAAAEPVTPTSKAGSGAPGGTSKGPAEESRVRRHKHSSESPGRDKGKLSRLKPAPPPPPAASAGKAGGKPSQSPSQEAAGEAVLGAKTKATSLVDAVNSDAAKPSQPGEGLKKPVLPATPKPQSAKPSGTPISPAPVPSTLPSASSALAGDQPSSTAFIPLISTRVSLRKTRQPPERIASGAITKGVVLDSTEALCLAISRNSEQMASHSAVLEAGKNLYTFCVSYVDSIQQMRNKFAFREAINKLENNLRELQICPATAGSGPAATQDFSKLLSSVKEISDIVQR
PDGFRβ, sequence (P09619 33-1106, species assumed): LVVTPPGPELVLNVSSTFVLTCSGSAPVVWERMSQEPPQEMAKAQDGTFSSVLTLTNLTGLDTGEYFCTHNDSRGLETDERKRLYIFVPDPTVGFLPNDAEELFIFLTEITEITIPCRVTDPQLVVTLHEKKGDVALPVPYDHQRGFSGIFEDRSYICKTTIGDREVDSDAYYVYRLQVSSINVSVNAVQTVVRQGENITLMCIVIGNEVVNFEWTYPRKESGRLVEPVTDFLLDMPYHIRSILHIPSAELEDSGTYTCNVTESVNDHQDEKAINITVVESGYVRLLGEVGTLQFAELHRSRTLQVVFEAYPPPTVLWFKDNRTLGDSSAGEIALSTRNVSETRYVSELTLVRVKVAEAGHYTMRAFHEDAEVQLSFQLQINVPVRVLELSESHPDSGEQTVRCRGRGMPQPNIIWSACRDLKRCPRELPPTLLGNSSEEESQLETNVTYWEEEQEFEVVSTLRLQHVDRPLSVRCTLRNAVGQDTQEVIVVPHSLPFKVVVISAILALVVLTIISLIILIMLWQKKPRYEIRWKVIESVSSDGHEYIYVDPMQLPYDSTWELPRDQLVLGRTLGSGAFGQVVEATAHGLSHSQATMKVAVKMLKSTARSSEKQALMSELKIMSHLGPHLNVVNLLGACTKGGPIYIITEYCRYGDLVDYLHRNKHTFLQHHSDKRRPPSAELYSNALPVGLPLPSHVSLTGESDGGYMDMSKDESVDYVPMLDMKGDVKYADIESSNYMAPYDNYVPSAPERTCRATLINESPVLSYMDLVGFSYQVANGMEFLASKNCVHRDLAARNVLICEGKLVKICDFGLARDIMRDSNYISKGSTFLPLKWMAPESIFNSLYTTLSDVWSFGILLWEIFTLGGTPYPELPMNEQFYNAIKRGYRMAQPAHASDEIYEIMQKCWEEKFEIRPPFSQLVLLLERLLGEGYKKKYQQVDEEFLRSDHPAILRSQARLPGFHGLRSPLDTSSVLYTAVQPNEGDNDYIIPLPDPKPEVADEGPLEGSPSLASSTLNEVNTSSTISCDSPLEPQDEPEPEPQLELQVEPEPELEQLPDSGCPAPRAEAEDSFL

Compound | melting point | inhibition at 10 µM (KDR; 10 μM, Examples 1 to 169) | inhibition at 10 µM (FGFR3 (K650E); [4]) | inhibition at 10 µM (Tek) | further results
Cc1ccc(NC(=O)c2cccc(C(F)(F)F)c2)cc1NC(=O)N(CCN1CCOCC1)c1cc(N)ncn1 [Example 214, N-{3-[3-(6-Amino-pyrimidin-4-yl)-3-(2-morpholin-4-yl-ethyl)-ureido]-4-methyl-phenyl}-3-trifluoromethyl-benzamide] | – | – | – | – | IC50 (wild type Bcr-abl): 14.9 nM; IC50 (PDGFRβ): 0.4 nM; IC50 (FGFR35 [1]): 65 nM; GI50 (FGFR35 [2]): 49 nM
CN1CCN(c2cccc(Nc3cc(NC(=O)Nc4c(Cl)cccc4Cl)ncn3)c2)CC1 [Example 5, 1-(2,6-Dichloro-phenyl)-3-{6-[3-(4-methyl-piperazin-1-yl)-phenylamino]-pyrimidin-4-yl}-urea] | 209 to 212 °C | 67 to 100% | 27 to 100% | 12 to 100% | –
Cc1cccc(Cl)c1NC(=O)Nc1cc(Nc2cccc(OCC3CCN(C)CC3)c2)ncn1 [Example 79, 1-(2-Chloro-6-methyl-phenyl)-3-{6-[3-(1-methyl-piperidin-4-ylmethoxy)-phenylamino]-pyrimidin-4-yl}-urea] | 200 to 204 °C | 67 to 100% | 27 to 100% | 12 to 100% | –
CC(C)(C)[Si](C)(C)O[C@H]1CC[C@H](Nc2cc(NC(=O)Nc3c(Cl)cc(Cl)cc3Cl)ncn2)CC1 [Example 87, 1-{6-[(trans)-4-(tert-Butyl-dimethyl-silanyloxy)-cyclohexylamino]-pyrimidin-4-yl}-3-(2,4,6-trichloro-phenyl)-urea] | 198 to 199 °C | – | – | 12 to 100% | inhibition at 10 µM (KDR): 67 to 100%; inhibition at 10 µM (FGFR3 (K650E); read-out: FGFR3 (K650E) inhibition at 10 μM): 27 to 100%
CC(C)Nc1cc(NC(=O)Nc2c(Cl)cccc2Cl)ncn1 [Example 68, 1-(2,6-Dichloro-phenyl)-3-(6-isopropylamino-pyrimidin-4-yl)-urea] | 203 to 204 °C | 67 to 100% | 27 to 100% | 12 to 100% | –

The next lines start with results.

melting point | inhibition at 10 µM (KDR; 10 μM, Examples 1 to 169) | inhibition at 10 µM (FGFR3 (K650E); [4]) | inhibition at 10 µM (Tek) | Compound | further results
191.5 to 193 °C | – | – | – | Cc1ccc(NC(=O)c2ccc(CN3CCN(C)CC3)c(C(F)(F)F)c2)cc1NC(=O)N(C)c1cc(N)ncn1 [Example 194, N-{3-[3-(6-Amino-pyrimidin-4-yl)-3-methyl-ureido]-4-methyl-phenyl}-4-(4-methyl-piperazin-1-ylmethyl)-3-trifluoromethyl-benzamide] | inhibition at 10 µM (KDR; 10 μM, Examples 171 to 206): 87 to 100%; inhibition at 10 µM (FGFR3 (K650E); [3]): 56 to 98%; inhibition at 10 µM (c-Abl): 79 to 100%
221 °C (dec.) | 67 to 100% | 27 to 100% | 12 to 100% | COc1cc(OC)c(Cl)c(NC(=O)N(C)c2cc(Nc3ccc(N4CCN(C)CC4)cc3)ncn2)c1Cl [Example 2, 3-(2,6-Dichloro-3,5-dimethoxy-phenyl)-1-methyl-1-{6-[4-(4-methyl-piperazin-1-yl)-phenylamino]-pyrimidin-4-yl}-urea] | –
189.5 to 191 °C | – | – | – | Cc1ccc(NC(=O)c2cccc(C(F)(F)F)c2)cc1NC(=O)N(C)c1cc(Nc2ccc(N3CCN(C)CC3)cc2)ncn1 [Example 171, N-[4-Methyl-3-(3-methyl-3-{6-[4-(4-methyl-piperazin-1-yl)-phenyl-amino]-pyrimidin-4-yl}-ureido)-phenyl]-3-trifluoromethyl-benzamide] | inhibition at 10 µM (KDR; 10 μM, Examples 171 to 206): 87 to 100%; inhibition at 10 µM (FGFR3 (K650E); [3]): 56 to 98%; inhibition at 10 µM (c-Abl): 79 to 100%
